Experiments:
[1] = system: human multiple myeloma RPMI8226 cells; assay: Inhibitory activity against human multiple myeloma RPMI8226 cell growth (CellTiter-Glo); type: cell-based; details: 1 μM of the test compound, cultured for 8 days; for inhibition at 1 µM: Homo sapiens, RPMI-8226, 192 h, read-out: Percent inhibition of RPMI8226 cell growth (%)
How it was run: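 RPMI8226 cells (300/well) cultured 1 day at 37 °C, 5% CO2, then given compound at 1 μM for 8 days. ATP luminescence (CellTiter-Glo) read; percent inhibition relative to 0.1% DMSO wells.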

[2] = biological target: T1, CDK19 (CDC2L6/CycC) (Homo sapiens, UniProt Q9BWU1); assay: CDK19 inhibitory activity (TR-FRET, Kinase Tracer-236 displacement); type: binding; details: 1 μM of the test compound; for inhibition at 1 µM: read-out: Percent inhibition of CDK19 activity (%)
T1 construct: purchased Carna Biosciences
How it was run: (§1)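 Binding assay measuring displacement of Kinase Tracer-236 (60 nM in the added mix) by compound, using Eu-cryptate anti-GST antibody with CDK8/CycC (84 ng/mL) or CDC2L6/CycC (87 ng/mL) solutions. After 1 h at room temperature, TR-FRET read at 615 and 665 nm (excitation 320 nm).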

[3] = biological target: T2, CDK8/CycC (Homo sapiens, UniProt P49336); assay: CDK8 inhibitory activity (TR-FRET, Kinase Tracer-236 displacement); type: binding; details: 1 μM of the test compound; for inhibition at 1 µM: read-out: Percent inhibition of CDK8 activity (%)
T2 construct: purchased Carna Biosciences
How it was run: as §1

T2 sequence (P49336 whole entry): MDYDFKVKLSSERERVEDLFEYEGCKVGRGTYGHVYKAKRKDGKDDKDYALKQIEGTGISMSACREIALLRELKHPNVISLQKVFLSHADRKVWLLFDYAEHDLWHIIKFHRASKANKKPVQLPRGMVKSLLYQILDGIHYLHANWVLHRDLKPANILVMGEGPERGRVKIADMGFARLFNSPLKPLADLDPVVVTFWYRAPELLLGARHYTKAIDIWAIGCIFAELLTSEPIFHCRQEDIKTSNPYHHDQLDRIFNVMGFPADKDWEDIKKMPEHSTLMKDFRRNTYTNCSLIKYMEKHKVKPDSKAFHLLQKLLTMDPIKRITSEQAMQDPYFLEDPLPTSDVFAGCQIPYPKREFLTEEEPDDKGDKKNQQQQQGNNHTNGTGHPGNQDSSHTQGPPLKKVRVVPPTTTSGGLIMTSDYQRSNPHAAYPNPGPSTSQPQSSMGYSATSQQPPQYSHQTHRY
T2 sequence (P24863 whole entry partner): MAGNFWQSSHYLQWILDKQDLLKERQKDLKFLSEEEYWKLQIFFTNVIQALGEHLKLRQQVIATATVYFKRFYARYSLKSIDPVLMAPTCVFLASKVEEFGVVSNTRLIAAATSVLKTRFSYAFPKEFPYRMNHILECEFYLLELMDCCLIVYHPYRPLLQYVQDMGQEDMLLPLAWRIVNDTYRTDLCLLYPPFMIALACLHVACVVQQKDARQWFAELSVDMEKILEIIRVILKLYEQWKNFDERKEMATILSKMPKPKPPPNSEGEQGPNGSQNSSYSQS
T1 sequence (Q9BWU1 whole entry): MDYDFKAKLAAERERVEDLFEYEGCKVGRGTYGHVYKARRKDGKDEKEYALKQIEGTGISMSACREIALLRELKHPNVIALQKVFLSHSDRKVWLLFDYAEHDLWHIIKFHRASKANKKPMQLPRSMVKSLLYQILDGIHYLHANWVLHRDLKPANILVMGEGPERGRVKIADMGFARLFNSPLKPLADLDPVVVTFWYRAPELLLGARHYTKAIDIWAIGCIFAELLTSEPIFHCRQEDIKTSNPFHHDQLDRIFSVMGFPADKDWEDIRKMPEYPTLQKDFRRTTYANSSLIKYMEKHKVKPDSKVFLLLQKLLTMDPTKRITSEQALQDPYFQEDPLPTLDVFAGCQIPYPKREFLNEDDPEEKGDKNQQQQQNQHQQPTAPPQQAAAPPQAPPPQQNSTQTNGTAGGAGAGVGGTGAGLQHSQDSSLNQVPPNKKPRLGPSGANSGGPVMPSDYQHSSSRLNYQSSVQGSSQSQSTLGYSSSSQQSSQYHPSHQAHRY
T1 sequence (P24863 whole entry partner): as the sequence (P24863 whole entry partner) above

SMILES	inhibition at 1 µM [2] [%]	inhibition at 1 µM [3] [%]	Percent inhibition of CDK19 activity (%) ([2]; 1 µM)	Percent inhibition of CDK8 activity (%) ([3]; 1 µM)	inhibition at 1 µM [1] [%]	Percent inhibition of RPMI8226 cell growth (%) ([1]; 1 µM)
Cn1cc(-c2ccncc2/C=C/C(=O)Nc2ccc(CN3CC(F)(F)OC(F)(F)C3)cc2)cn1 [Example 58]	98	97	–	–	55	–
Cn1cc(-c2ccncc2/C=C/C(=O)Nc2ccc(CCC(F)(F)F)cc2)cn1 [Example 124, (2E)-3-(4-(1-methyl-1H-pyrazol-4-yl)pyridin-3-yl)-N-(4-(3,3,3-trifluoropropyl)phenyl)acrylamide]	99	98	–	–	53	–
Cn1cc(-c2ccncc2/C=C/C(=O)Nc2ccc(CNCC(F)(F)C(F)(F)F)cc2)cn1 [Example 73, (2E)-3-(4-(1-methyl-1H-pyrazol-4-yl)pyridin-3-yl)-N-(4-(((2,2,3,3,3-pentafluoropropyl)amino)methyl)phenyl)acrylamide]	99	101	–	–	56	–
COc1ccsc1-c1ccncc1/C=C/C(=O)Nc1ccc(CN2CCOCC2)cc1 [Example 100, (2E)-3-(4-(3-methoxy-2-thienyl)pyridin-3-yl)-N-(4-(morpholin-4-ylmethyl)phenyl)acrylamide]	100	97	–	–	52	–
Cn1cc(-c2ccncc2/C=C/C(=O)Nc2ccc(CN3CC4CCC(C3)O4)cc2)cn1 [Example 50, (2E)-3-(4-(1-methyl-1H-pyrazol-4-yl)pyridin-3-yl)-N-(4-(8-oxa-3-azabicyclo[3.2.1]oct-3-ylmethyl)phenyl)acrylamide]	97	96	–	–	61	–
Cn1cc(-c2ccncc2/C=C/C(=O)Nc2ccc(CN3CCN4CCCC4C3)cc2)cn1 (stereo not drawn) [Example 78, (2E)-N-(4-(hexahydropyrrolo[1,2-a]pyrazin-2(1H)-ylmethyl)phenyl)-3-(4-(1-methyl-1H-pyrazol-4-yl)pyridin-3-yl)acrylamide]	74	100	–	–	59	–
O=C(/C=C/c1cncc(F)c1-c1cnn(C2CC2)c1)Nc1ccc(CN2CC3CC(C2)O3)cc1 [Example 336, (2E)-3-(4-(1-Cyclopropyl-1H-pyrazol-4-yl)-5-fluoropyridin-3-yl)-N-(4-(6-oxa-3-azabicyclo[3.1.1]hept-3-ylmethyl)phenyl)acrylamide]	101	102	–	–	59	–
Cn1cc(-c2ccncc2/C=C/C(=O)Nc2ccc(CCN3CCOCC3)cc2)cn1 [Example 91, (2E)-3-(4-(1-Methyl-1H-pyrazol-4-yl)pyridin-3-yl)-N-(4-(2-(morpholin-4-yl)ethyl)phenyl)acrylamide]	101	96	–	–	59	–
Cc1cc(NC(=O)/C=C/c2cnccc2-c2cnn(C)c2)ccc1CN1CCOCC1 [Example 109, (2E)-N-(3-Methyl-4-(morpholin-4-ylmethyl)phenyl)-3-(4-(1-methyl-1H-pyrazol-4-yl)pyridin-3-yl)acrylamide]	98	96	–	–	58	–
Cn1cc(-c2ccncc2/C=C/C(=O)Nc2ccc(CNC3CC(F)(F)C3)cc2)cn1 [Example 89, (2E)-N-(4-(((3,3-difluorocyclobutyl)amino)methyl)phenyl)-3-(4-(1-methyl-1H-pyrazol-4-yl)pyridin-3-yl)acrylamide]	97	96	–	–	63	–
Cn1cc(-c2ccncc2/C=C/C(=O)Nc2ccc(CN3CCOC(C)(C)C3)cc2)cn1 [Example 37, (2E)-N-(4-((2,2-Dimethylmorpholin-4-yl)methyl)phenyl)-3-(4-(1-methyl-1H-pyrazol-4-yl)pyridin-3-yl)acrylamide]	101	97	–	–	61	–

The next lines start with results.

inhibition at 1 µM [2] [%]	inhibition at 1 µM [3] [%]	Percent inhibition of CDK19 activity (%) ([2]; 1 µM)	Percent inhibition of CDK8 activity (%) ([3]; 1 µM)	SMILES	inhibition at 1 µM [1] [%]	Percent inhibition of RPMI8226 cell growth (%) ([1]; 1 µM)
93	99	–	–	CN(C)CCOc1ccc(NC(=O)/C=C/c2cnccc2-c2cnn(C)c2)cc1 [Example 252, (2E)-N-(4-(2-(dimethylamino)ethoxy)phenyl)-3-(4-(1-methyl-1H-pyrazol-4-yl)pyridin-3-yl)acrylamide]	60	–
101	98	–	–	Cn1cc(-c2ccncc2/C=C/C(=O)Nc2ccc3c(c2)CCN(CC(F)(F)F)C3)cn1 [Example 277, (2E)-3-(4-(1-methyl-1H-pyrazol-4-yl)pyridin-3-yl)-N′-(2-(2,2,2-trifluoroethyl)-1,2,3,4-tetrahydroisoquinolin-6-yl)acrylamide]	65	–
93	97	–	–	O=C(/C=C/c1cnccc1-c1cnn(C2CC2)c1)Nc1ccc(COC(F)F)cc1 [Example 292, (2E)-3-(4-(1-Cyclopropyl-1H-pyrazol-4-yl)pyridin-3-yl)-N-(4-((difluoromethoxy)methyl)phenyl)acrylamide]	52	–
97	96	–	–	O=C(/C=C/c1cnccc1-c1ccc2[nH]ncc2c1)Nc1ccc(CN2CCOCC2)cc1 [Example 242, (2E)-3-(4-(1H-indazol-5-yl)pyridin-3-yl)-N-(4-(morpholin-4-ylmethyl)phenyl)acrylamide]	55	–
102	98	–	–	O=C(/C=C/c1cnccc1-c1cnn(C2CC2)c1)Nc1ccc2c(c1)CN(CC(F)(F)F)CC2 [Example 247, (2E)-3-(4-(1-Cyclopropyl-1H-pyrazol-4-yl)pyridin-3-yl)-N-(2-(2,2,2-trifluoroethyl)-1,2,3,4-tetrahydroisoquinolin-7-yl)acrylamide]	63	–
100	102	–	–	Cn1cc(-c2ccncc2/C=C/C(=O)Nc2ccc(N3CCOCC3)c(Cl)c2)cn1 [Example 159, (2E)-N-(3-chloro-4-(morpholin-4-yl)phenyl)-3-(4-(1-methyl-1H-pyrazol-4-yl)pyridin-3-yl)acrylamide]	60	–
94	97	–	–	O=C(/C=C/c1cnccc1-c1cnn(C2CC2)c1)Nc1ccc2c(c1)CN(CC(F)(F)C(F)(F)F)CC2 [Example 300, (2E)-3-(4-(1-cyclopropyl-1H-pyrazol-4-yl)pyridin-3-yl)-N-(2-(2,2,3,3,3-pentafluoropropyl)-1,2,3,4-tetrahydroisoquinolin-7-yl)acrylamide]	57	–
99	98	–	–	Cc1cc(NC(=O)/C=C/c2cnccc2-c2cnn(C3CC3)c2)ccc1CN1CCOCC1 [Example 142, (2E)-3-(4-(1-cyclopropyl-1H-pyrazol-4-yl)pyridin-3-yl)-N-(3-methyl-4-(morpholin-4-ylmethyl)phenyl)acryalmide]	62	–
–	–	100	102	O=C(/C=C/c1cnccc1-c1cnn(C2CC2)c1)Nc1ccc(CN2CC(F)(F)C2)cc1 [Example 377, (2E)-3-(4-(1-Cyclopropyl-1H-pyrazol-4-yl)pyridin-3-yl)-N-(4-((3,3-difluoroazetidin-1-yl)methyl)phenyl)acrylamide hemisuccinate]	–	66
97	103	–	–	COCCn1cnc2ccc(-c3ccncc3/C=C/C(=O)Nc3ccc(CN4CCOCC4)cc3)cc21 [Example 295, (2E)-3-(4-(1-(2-methoxyethyl)-1H-benzimidazol-6-yl)pyridin-3-yl)-N-(4-(morpholin-4-ylmethyl)phenyl)acrylamide]	62	–
98	98	–	–	O=C(/C=C/c1cnccc1-c1cnn(C2CC2)c1)Nc1ccc2c(c1)CN(C(=O)C(F)(F)F)CC2 [Example 248, (2E)-3-(4-(1-Cyclopropyl-1H-pyrazol-4-yl)pyridin-3-yl)-N-(2-(trifluoroacetyl)-1,2,3,4-tetrahydroisoquinolin-7-yl)acrylamide]	57	–
94	101	–	–	COC(C)(C)Cc1ccc(NC(=O)/C=C/c2cnccc2-c2cnn(C3CC3)c2)cc1 [Example 272, (2E)-3-(4-(1-cyclopropyl-1H-pyrazol-4-yl)pyridin-3-yl)-N-(4-(2-methoxy-2-methylpropyl)phenyl)acrylamide]	67	–
101	103	–	–	O=C(/C=C/c1cnccc1-c1cnn(C2CC2)c1)Nc1ccc2c(c1)CN(CC(F)(F)F)C2 [Example 319, (2E)-3-(4-(1-Cyclopropyl-1H-pyrazol-4-yl)pyridin-3-yl)-N-(2-(2,2,2-trifluoroethyl)-2,3-dihydro-1H-isoindol-5-yl)acrylamide]	47	–
98	99	–	–	COc1ncc(-c2ccncc2/C=C/C(=O)Nc2ccc(CN3CCOCC3)cc2)s1 [Example 221, (2E)-3-(4-(2-Methoxy-1,3-thiazol-5-yl)pyridin-3-yl)-N-(4-(morpholin-4-ylmethyl)phenyl)acrylamide]	63	–
